Results from patent US12042560B2, “Liposome composition” (Eisai R&D Management Co., Ltd., priority 2009, dated 2024).
Counter-ions that a name gives are not always drawn.

Legend:
[1] = system: FaDu human pharyngeal squamous cell carcinoma line; assay: In vivo antitumor activity in FaDu cancer-bearing nude mice; settings: free bodies, 4 mg/kg, caudal vein, 3 times in 7-day intervals, FIG. 2
Experimental: (§1) FaDu (obtained from the American Type Culture Collection), which is a human pharyngeal squamous cell carcinoma line, was cultured and grown in a 10% bovine fetal serum-containing MEM culture. The cells were separated from the flask using 0.05% Trypsin-EDTA solution and collected. After washing with PBS, the cells were suspended in PBS so as to be 5×10^7 cells/mL and kept on ice. 0.1 mL of cell suspension liquid were subcutaneously injected in the right ventral portion of 6-week old nude mice (Charles River Laboratories Japan, Inc.). Each mouse was observed daily, and notes were made appropriately in cases where abnormal conditions were found. Calipers were used to measure the tumor size over time, and the tumor size was calculated based on the calculation formula: major axis×(minor axis squared)÷2. At the point when the tumor size was 100 to 200 mm^3, the mice were separated into groups such that the average values of the tumor sizes and the mouse body weights were uniform among the test groups (five mice per test group), and the drug was administered into the caudal vein (0.2 mL/20 g; 3 times in 7-day intervals).

[2] = system: ACHN human renal cancer cell line; assay: In vivo antitumor activity in ACHN cancer-bearing nude mice; settings: free body, 2 mg/kg, 3 mg/kg and 4 mg/kg, 45 days after the start of sample administration, FIG. 3
Experimental: ACHN (obtained from the American Type Culture Collection), which is a human renal cancer cell line, was cultured and grown in a 10% bovine fetal serum-containing MEM culture. The cells were separated from the flask using 0.05% Trypsin-EDTA solution and collected. After washing with PBS, the cells were suspended in PBS so as to be 5×10^7 cells/mL and then kept on ice. 0.1 mL of cell suspension liquid were subcutaneously injected in the right ventral portion of 6-week old nude mice (Charles River Laboratories Japan, Inc.). Each mouse was observed daily, and notes made appropriately in cases where abnormal conditions were found. Calipers were used to measure the tumor size over time, and the tumor size was calculated based on the calculation formula: major axis×(minor axis squared)÷2. At the point when the tumor size was 150 to 200 mm^3, the mice were separated into groups such that the average values of the tumor sizes and the body weights of mice were uniform among the test groups (five mice per test group), and the drug was administered into the caudal vein (0.2 mL/20 g; 3 times in 7-day intervals).

[3] = Maximum tolerated dose in nude mice; settings: mouse, in vivo, intravenous, free bodies
Experimental: as §1, with “At the point when the tumor size was 100 to 200 mm^3, the mice were separated into groups such that the average values of the tumor sizes and the mouse body weights were uniform among the test groups (five mice per test group), and the drug was administered into the caudal vein (0.2 mL/20 g; 3 times in 7-day intervals).” left out
ACHN (obtained from the American Type Culture Collection), which is a human renal cancer cell line, was cultured and grown in a 10% bovine fetal serum-containing MEM culture. […] Calipers were used to measure the tumor size over time, and the tumor size was calculated based on the calculation formula: major axis×(minor axis squared)÷2. […]

C=C1C[C@@H]2CC[C@@]34C[C@H]5O[C@H]6[C@@H](O3)[C@H]3O[C@H](CC[C@@H]3O[C@H]6[C@H]5O4)CC(=O)C[C@@H]3[C@@H](OC)[C@@H](C[C@H](O)CN)O[C@H]3C[C@H]3O[C@@H](CC[C@@H]1O2)C[C@@H](C)C3=C [Eribulin mesylate, eribulin mesylate]
Tumor-reducing effect (average tumor volume) [1]: a tumor-reducing effect was not obtained | Tumor volume versus non-treated group [2]: no significant difference was found | MTD [3]: 4 mg/kg
